Read-outs that look alike come from different tables or passages of the source.
Experiments:
[1] = molecular target: T1, soluble guanylate cyclase (sGC) (Homo sapiens, UniProt Q02108+Q02153); test: sGC-HEK-cGMP assay (run with SNP incubation); type: cell-based; conditions: for Emax: 10 μM SNP, 100% = 30 μM BAY 41-2272 with 10 μM SNP, read-out: HEK assay Emax-unconstrained (Percent); for HEK MEC-10: concentration that would elicit 10% of the Emax in the presence of 10 μM SNP; for EC50: in the presence of 10 μM SNP
T1 construct: endogenously expressing soluble guanylate cyclase (sGC); endogenous in cells; host or cells: HEK293
T1 sequence (Q02153 1-619): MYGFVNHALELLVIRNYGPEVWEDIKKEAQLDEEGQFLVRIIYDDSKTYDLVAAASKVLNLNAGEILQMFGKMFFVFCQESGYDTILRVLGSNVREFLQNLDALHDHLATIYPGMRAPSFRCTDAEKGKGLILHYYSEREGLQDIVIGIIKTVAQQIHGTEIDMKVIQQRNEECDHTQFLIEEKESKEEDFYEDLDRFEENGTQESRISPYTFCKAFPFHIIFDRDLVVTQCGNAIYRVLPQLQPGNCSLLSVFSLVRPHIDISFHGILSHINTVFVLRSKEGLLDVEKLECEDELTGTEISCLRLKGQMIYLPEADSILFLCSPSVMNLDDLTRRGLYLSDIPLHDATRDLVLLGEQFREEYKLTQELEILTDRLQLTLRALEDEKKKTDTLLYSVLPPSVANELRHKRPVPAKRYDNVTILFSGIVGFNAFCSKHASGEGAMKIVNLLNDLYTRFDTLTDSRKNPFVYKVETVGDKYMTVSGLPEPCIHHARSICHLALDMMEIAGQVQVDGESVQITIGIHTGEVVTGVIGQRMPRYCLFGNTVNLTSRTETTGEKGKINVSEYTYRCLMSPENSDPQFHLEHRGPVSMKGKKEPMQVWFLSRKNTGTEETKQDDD
T1 sequence (Q02108 1-690): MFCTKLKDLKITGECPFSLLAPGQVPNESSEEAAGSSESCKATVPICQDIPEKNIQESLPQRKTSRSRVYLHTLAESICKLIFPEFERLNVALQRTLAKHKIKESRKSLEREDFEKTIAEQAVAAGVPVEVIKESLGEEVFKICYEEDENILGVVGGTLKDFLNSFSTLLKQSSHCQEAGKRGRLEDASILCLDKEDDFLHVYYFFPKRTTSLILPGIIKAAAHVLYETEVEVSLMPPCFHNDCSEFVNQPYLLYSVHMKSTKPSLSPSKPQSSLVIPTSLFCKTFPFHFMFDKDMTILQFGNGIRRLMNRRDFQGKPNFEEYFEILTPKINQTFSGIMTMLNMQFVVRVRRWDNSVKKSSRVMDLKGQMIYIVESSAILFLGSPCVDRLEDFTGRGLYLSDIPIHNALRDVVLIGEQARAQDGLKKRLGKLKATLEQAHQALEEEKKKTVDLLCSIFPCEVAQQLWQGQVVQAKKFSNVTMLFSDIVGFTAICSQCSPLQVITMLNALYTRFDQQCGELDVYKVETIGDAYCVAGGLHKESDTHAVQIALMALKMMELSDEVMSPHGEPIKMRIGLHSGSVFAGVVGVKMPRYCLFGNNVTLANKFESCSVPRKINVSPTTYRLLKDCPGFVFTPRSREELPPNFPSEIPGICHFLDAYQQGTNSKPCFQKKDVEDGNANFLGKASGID
Method in brief: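 HEK293 cells with endogenous sGC were pre-treated 15 min at 37 °C with 0.5 mM IBMX, then exposed to test compound plus sodium nitroprusside for 10 min at 37 °C. Cells were lysed in 0.1 M HCl (4 °C, 30 min), and cGMP was quantified by LC/MS against a standard curve. EC50 values came from concentration-response curves.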

[2] = molecular target: T2, Human soluble guanylate cyclase enzyme (hsGC) (Homo sapiens, UniProt Q02108+Q02153); test: Purified human sGC enzyme synergy assay in the presence of 1 μM sodium nitroprusside (SNP); type: biochemical; conditions: compound at 30 μM, presence of 1 μM SNP
T2 construct: purchased Enzo Inc. ALX-201-177
T2 sequence (Q02153 1-619): T1 sequence (Q02153 1-619)
T2 sequence (Q02108 1-690): T1 sequence (Q02108 1-690)
Description: (§1) Human soluble guanylate cyclase enzyme (hsGC) obtained from Enzo Inc. (P/N: ALX-201-177) was used to evaluate the activity of test compounds. The assay reactions contained 0.1 M Tris (pH 8.0), 0.5 mg/mL BSA (pH 8.0), 2 mM DTT, 2 mM MgCl2, 300 μM GTP, 1 mM 3-isobutyl-1-methylxanthine (IBMX) and 5 ng human soluble guanylate cyclase enzyme. Test compounds in DMSO were then added (2 μL, 10 or 30 μM final concentration) and incubated (200 μL, 96-well plate format) at 37° C. for 30 minutes. The controls were carried out using 2 μL DMSO. After the 30 minute incubation, the reaction was stopped with the addition of 200 μl of cold methanol. The plate was then centrifuged at 3,200 rpm for 10 minutes at room temperature. Supernatants (200 μL) were collected and transferred to a new 96 well plate for analysis.
(§2) An 8 point cGMP (Sigma-Aldrich P/N: G6129) standard curve was prepared in assay buffer ranging from 0.156-20 μM. Samples for the cGMP standard curve were then diluted with an equal volume of methanol resulting in final cGMP concentrations of 0.078-10 μM.
(§3) The cGMP standard curve was generated using GraphPad Prism Software.
(§4) Calculations: Specific Activity was determined by the amount of cGMP formed (nmoles) per mg of sGC per min. Enzyme “fold-change” was calculated by dividing Specific Activity for test compounds by Specific Activity of DMSO controls.
Biological Measurement by the Purified Human sGC Enzyme Synergy Performed in the Presence of Sodium Nitroprusside (SNP), a Nitric Oxide Donor
Enzyme assays were performed as described above, but was done in the absence or presence of 1 μM sodium nitroprusside (SNP).

[3] = molecular target: T2, Human soluble guanylate cyclase enzyme (hsGC); test: Purified human sGC enzyme activity assay (without SNP); type: biochemical; conditions: compound at 30 μM, absence of SNP, fold over DMSO control
Description: Biological Activity Measurements by the Purified Human sGC Enzyme Activity Assay
as §1, §2, §3, §4

[4] = Table 3A, top of concentration-response curve not fitted to 100%
[5] = Table 3B, top of concentration-response curve not fitted to 100%
[6] = top of concentration-response curve not fitted to 100%, Table 3E, read-out: HEK assay EC50-unconstrained
[7] = Table 3D, read-out: HEK assay EC50
[8] = top of concentration-response curve not fitted to 100%, Table 3D, read-out: HEK assay EC50-unconstrained
[9] = Table 3E, read-out: HEK assay EC50

Emax [1, 4]	HEK MEC-10 ([1]; Table 3D)	Enzyme Activity (increase at 30 μM with SNP) ([2]; Table 5A)	Enzyme Activity (increase at 30 μM without SNP) ([3]; Table 5A)	Emax [1, 5]	EC50 [1, 6]	Enzyme Activity (increase at 30 μM with SNP) ([2]; Table 5B)	Enzyme Activity (increase at 30 μM without SNP) ([3]; Table 5B)	EC50 [1, 7]	EC50 [1, 8]	HEK MEC-10 ([1]; Table 3E)	EC50 [1, 9]	SMILES	other results
60 to 80%	B (0.01 to <0.1 μM)	D (10 or <20 fold increase)	C (5 to <10 fold increase)	–	–	–	–	–	–	–	–	COc1nc(-c2cc(-c3ccon3)n(Cc3ccccc3F)n2)ncc1F [Compound 28]	–
–	–	–	–	80 to 100%	1 to 5 µM	E (20 to 30 fold increase)	F (>30 fold increase)	–	–	–	–	Nc1nc(-c2cc(-c3ccon3)n(Cc3cccc(F)c3F)n2)ncc1NC(=O)c1ccc(F)cc1 [Compound 88]	–
–	–	–	–	60 to 80%	1 to 5 µM	D (10 or <20 fold increase)	A (no increase to <2 fold increase)	–	–	C (0.1 to <1 μM)	60 to 100 µM	Nc1ccnc(-c2cc(-c3ccon3)n(Cc3ccc(F)cc3F)n2)n1 [Compound 71]	–
–	–	–	–	40 to 60%	5 to 10 µM	D (10 or <20 fold increase)	B (2 to <5 fold increase)	–	–	D (1 to <10 μM)	40 to 60 µM	O=c1[nH]c(-c2cc(-c3ccon3)n(Cc3ccccc3F)n2)nc(CF)c1F [Compound 79]	–
–	–	–	–	40 to 60%	0.01 to 0.5 µM	D (10 or <20 fold increase)	D (10 or <20 fold increase)	–	–	B (0.01 to <0.1 μM)	40 to 60 µM	O=c1[nH]c(-c2cc(-c3ccon3)n(Cc3cc(F)ccc3F)n2)ncc1F [Compound 72]	–
–	–	–	–	60 to 80%	0.01 to 0.5 µM	E (20 to 30 fold increase)	C (5 to <10 fold increase)	–	–	C (0.1 to <1 μM)	60 to 100 µM	O=c1[nH]c(-c2cc(-c3ccon3)n(Cc3cccc(Cl)c3F)n2)ncc1F [Compound 77]	–
–	–	–	–	60 to 80%	0.5 to 1 µM	D (10 or <20 fold increase)	D (10 or <20 fold increase)	–	–	C (0.1 to <1 μM)	60 to 100 µM	Nc1ccnc(-c2cc(-c3ccon3)n(Cc3cc(F)ccc3F)n2)n1 [Compound 73]	–

Further lines, the molecule ahead of its results:

SMILES	Emax [1, 4]	HEK MEC-10 ([1]; Table 3D)	Enzyme Activity (increase at 30 μM with SNP) ([2]; Table 5A)	Enzyme Activity (increase at 30 μM without SNP) ([3]; Table 5A)	Emax [1, 5]	EC50 [1, 6]	Enzyme Activity (increase at 30 μM with SNP) ([2]; Table 5B)	Enzyme Activity (increase at 30 μM without SNP) ([3]; Table 5B)	EC50 [1, 7]	EC50 [1, 8]	HEK MEC-10 ([1]; Table 3E)	EC50 [1, 9]	other results
CC1(C(=O)Nc2cnc(-c3cc(-c4ncco4)n(Cc4ccccc4F)n3)nc2N)CC1(F)F (stereo not drawn) [Compound 55]	100 to 120%	C (0.1 to <1 μM)	F (>30 fold increase)	C (5 to <10 fold increase)	–	–	–	–	< 20 µM	1 to 5 µM	–	–	–
Oc1nc(-c2cc(-c3nccs3)n(Cc3ccccc3F)n2)ncc1F [Compound 44]	40 to 60%	C (0.1 to <1 μM)	D (10 or <20 fold increase)	B (2 to <5 fold increase)	–	–	–	–	< 20 µM	0.01 to 0.5 µM	–	–	–
Oc1nc(-c2cc(-c3ccon3)n(Cc3ccccc3F)n2)ncc1-c1ncco1 [Compound 38]	80 to 100%	D (1 to <10 μM)	C (5 to <10 fold increase)	B (2 to <5 fold increase)	–	–	–	–	< 20 µM	5 to 10 µM	–	–	–
Fc1ccccc1Cn1nc(-c2ncccn2)c(F)c1-c1ccon1 [Compound 34]	20 to 40%	D (1 to <10 μM)	D (10 or <20 fold increase)	B (2 to <5 fold increase)	–	–	–	–	60 to 100 µM	1 to 5 µM	–	–	–
Cn1[nH]c2nc(-c3cc(-c4ccon4)n(Cc4ccccc4F)n3)ncc2c1=O [Compound 112]	–	–	–	–	–	–	–	–	–	–	–	–	Emax ([1]; Table 3C, top of concentration-response curve not fitted to 100%): 60 to 80%; HEK MEC-10 ([1]; Table 3F): E (10 to 50 μM); EC50 ([1]; Table 3F, read-out: HEK assay EC50): 60 to 100 µM; EC50 ([1]; top of concentration-response curve not fitted to 100%, Table 3F, read-out: HEK assay EC50-unconstrained): 10 to 50 µM; Enzyme Activity (increase at 30 μM with SNP) ([2]; Table 5C): B (2 to <5 fold increase); Enzyme Activity (increase at 30 μM without SNP) ([3]; Table 5C): A (no increase to <2 fold increase)
Oc1nc(-c2cc(-c3ccon3)n(Cc3ccccc3F)n2)ncc1-c1nccs1 [Compound 42]	40 to 60%	C (0.1 to <1 μM)	D (10 or <20 fold increase)	B (2 to <5 fold increase)	–	–	–	–	< 20 µM	0.5 to 1 µM	–	–	–
CC(C)(CC(F)(F)F)C(=O)Nc1cnc(-c2cc(-c3ccon3)n(Cc3ccccc3F)n2)nc1N [Compound 53]	60 to 80%	C (0.1 to <1 μM)	E (20 to 30 fold increase)	C (5 to <10 fold increase)	–	–	–	–	< 20 µM	1 to 5 µM	–	–	–
CCCCCCCCCCC(=O)Nc1cnc(-c2cc(-c3ccon3)n(Cc3ccccc3F)n2)nc1N [Compound 58]	–	E (10 to 50 μM)	B (2 to <5 fold increase)	A (no increase to <2 fold increase)	–	–	–	–	600 to 900 µM	–	–	–	–
